# From PubChem BioAssay (NCI)
#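 96-well plates; 48 h exposure; 5 concentrations. Endpoints by linear interpolation between flanking doses. Not reached: highest tested concentration assigned. GI50: concentration for 50% inhibition of growth. TGI: total growth inhibition.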
# Key:
# Experiment in all cases: NCI anticancer screen, dose series, 48 h
# [1] = test system: PC-3 prostate
# [2] = test system: U251 CNS
# [3] = test system: TK-10 renal
# [4] = test system: UO-31 renal
# [5] = test system: ACHN renal
# [6] = test system: SK-MEL-2 melanoma
# [7] = test system: KM12 colon
# [8] = test system: SR leukemia
# [9] = test system: MOLT-4 leukemia
# [10] = test system: HOP-92 NSCLC
# [11] = test system: HCT-116 colon
# [12] = test system: A498 renal
# [13] = test system: SW-620 colon
# [14] = test system: K-562 leukemia
# [15] = test system: NCI-H522 lung
# [16] = test system: SF-539 CNS
# [17] = test system: OVCAR-5 ovarian
# [18] = test system: A549 NSCLC
# [19] = test system: NCI/ADR-RES ovarian
# [20] = test system: SF-268 CNS
# [21] = test system: SNB-19 CNS
# [22] = test system: HCC-2998 colon
# [23] = test system: HS 578T breast
# [24] = test system: BT-549 breast
# [25] = test system: SN12C renal
# [26] = test system: DU-145 prostate
# [27] = test system: NCI-H23 lung
# [28] = test system: SNB-75 CNS
# [29] = test system: MDA-MB-468 breast
# [30] = test system: SK-MEL-5 melanoma
# [31] = test system: SK-MEL-28 melanoma
# [32] = test system: COLO 205 colon
# [33] = test system: OVCAR-4 ovarian
# [34] = test system: MDA-MB-231 breast
# [35] = test system: HT29 colon
# [36] = test system: UACC-62 melanoma
# [37] = test system: HL-60(TB) leukemia
# [38] = test system: IGROV1 ovarian
# [39] = test system: SK-OV-3 ovarian
# [40] = test system: 786-0 renal
# [41] = test system: MDA-MB-435
# [42] = test system: OVCAR-8 ovarian
# [43] = test system: RPMI-8226 leukemia
# [44] = test system: UACC-257 melanoma
# [45] = test system: NCI-H460 lung
# [46] = test system: SF-295 CNS
# [47] = test system: CCRF-CEM leukemia
# [48] = test system: RXF 393 renal
# [49] = test system: NCI-H226 lung
# [50] = test system: HCT-15 colon
# [51] = test system: OVCAR-3 ovarian
# [52] = test system: MCF7 breast
# [53] = test system: HOP-62 NSCLC
# [54] = test system: MALME-3M melanoma
# [55] = test system: CAKI-1 renal
# [56] = test system: LOX IMVI melanoma
# [57] = test system: EKVX NSCLC
# [58] = test system: M14 melanoma
# [59] = test system: T-47D breast
smiles,measurement,setting,value
C#C[C@]1(O)CC[C@H]2[C@@H]3CC=C4c5sc(-c6ccc([N+](=O)[O-])cc6)nc5CC[C@]4(C)[C@H]3CC[C@@]21C,GI50,[1],7.18 µM
same,TGI,[1],95.7 µM
same,GI50,[2],2.99 µM
same,TGI,[2],18.8 µM
same,GI50,[3],13.8 µM
same,TGI,[3],26.7 µM
same,GI50,[4],5.02 µM
same,TGI,[4],16.2 µM
same,GI50,[5],12.2 µM
same,TGI,[5],24.6 µM
same,GI50,[6],7.18 µM
same,TGI,[6],21.3 µM
same,GI50,[7],17 µM
same,TGI,[7],38.4 µM
same,GI50,[8],2.49 µM
same,TGI,[8],> 100 µM
same,GI50,[9],2.61 µM
same,TGI,[9],33.1 µM
same,GI50,[10],22.3 µM
same,TGI,[10],47.4 µM
same,GI50,[11],10.2 µM
same,TGI,[11],23.3 µM
same,GI50,[12],4.04 µM
same,TGI,[12],13.8 µM
same,GI50,[13],8.39 µM
same,TGI,[13],27.2 µM
same,GI50,[14],3.26 µM
same,TGI,[14],> 100 µM
same,GI50,[15],15.1 µM
same,TGI,[15],38 µM
same,GI50,[16],0.895 µM
same,TGI,[16],3.61 µM
same,GI50,[17],12 µM
same,TGI,[17],24.3 µM
same,GI50,[18],12.5 µM
same,TGI,[18],36.2 µM
same,GI50,[19],16.4 µM
same,TGI,[19],67.9 µM
same,GI50,[20],12.8 µM
same,TGI,[20],43.6 µM
same,GI50,[21],13.8 µM
same,TGI,[21],29.8 µM
same,GI50,[22],7.21 µM
same,TGI,[22],23.1 µM
same,GI50,[23],2.04 µM
same,TGI,[23],10.3 µM
same,GI50,[24],3.76 µM
same,TGI,[24],16.7 µM
same,GI50,[25],13 µM
same,TGI,[25],26.3 µM
same,GI50,[26],12.8 µM
same,TGI,[26],30.3 µM
same,GI50,[27],13.8 µM
same,TGI,[27],29.9 µM
same,GI50,[28],2.93 µM
same,TGI,[28],18.6 µM
same,GI50,[29],12.4 µM
same,TGI,[29],28.9 µM
same,GI50,[30],5.45 µM
same,TGI,[30],17.9 µM
same,GI50,[31],7.33 µM
same,TGI,[31],20.5 µM
same,GI50,[32],14.9 µM
same,TGI,[32],33.8 µM
same,GI50,[33],15.4 µM
same,TGI,[33],43.7 µM
same,GI50,[34],12.3 µM
same,TGI,[34],27.4 µM
same,GI50,[35],11.4 µM
same,TGI,[35],35.2 µM
same,GI50,[36],14.3 µM
same,TGI,[36],27.4 µM
same,GI50,[37],13.5 µM
same,TGI,[37],42.6 µM
same,GI50,[38],10.3 µM
same,TGI,[38],30.9 µM
same,GI50,[39],12.3 µM
same,TGI,[39],30.6 µM
same,GI50,[40],1.84 µM
same,TGI,[40],13.4 µM
same,GI50,[41],11.9 µM
same,TGI,[41],25.9 µM
same,GI50,[42],15.3 µM
same,TGI,[42],38.5 µM
same,GI50,[43],0.404 µM
same,TGI,[43],6.27 µM
same,GI50,[44],12.1 µM
same,TGI,[44],25 µM
same,GI50,[45],6.19 µM
same,TGI,[45],25.8 µM
same,GI50,[46],0.41 µM
same,TGI,[46],1.8 µM
same,GI50,[47],4.36 µM
same,TGI,[47],31.9 µM
same,GI50,[48],0.625 µM
same,TGI,[48],3.18 µM
same,GI50,[49],18.1 µM
same,TGI,[49],50.2 µM
same,GI50,[50],3.99 µM
same,TGI,[50],23.9 µM
same,GI50,[51],14.9 µM
same,TGI,[51],31.7 µM
same,GI50,[52],3.07 µM
same,TGI,[52],16.6 µM
same,GI50,[53],11.5 µM
same,TGI,[53],30 µM
same,GI50,[54],3.59 µM
same,TGI,[54],16.5 µM
same,GI50,[55],10.8 µM
same,TGI,[55],22.7 µM
same,GI50,[56],6.89 µM
same,TGI,[56],33.1 µM
same,GI50,[57],10.1 µM
same,TGI,[57],23.8 µM
same,GI50,[58],2.74 µM
same,TGI,[58],12.2 µM
same,GI50,[59],7.23 µM
same,TGI,[59],25.2 µM
C=C(C)[C@@H]1CC[C@]2(COP(=O)(OCC)OCC)CC[C@]3(C)[C@H](CC[C@@H]4[C@@](C)(CCCN)[C@H](C(=C)C)CC[C@]43C)[C@@H]12,GI50,[1],2.24 µM
same,TGI,[1],11.4 µM
same,GI50,[2],6.51 µM
same,TGI,[2],20.7 µM
same,GI50,[3],12 µM
same,TGI,[3],25.2 µM
same,GI50,[4],3.58 µM
same,TGI,[4],15.2 µM
same,GI50,[5],5.54 µM
same,TGI,[5],18.1 µM
same,GI50,[6],9.64 µM
same,TGI,[6],22.6 µM
same,GI50,[7],4.73 µM
same,TGI,[7],17.8 µM
same,GI50,[8],3.66 µM
same,TGI,[8],> 100 µM
same,GI50,[9],3.27 µM
same,TGI,[9],16.1 µM
same,GI50,[10],2.63 µM
same,TGI,[10],16.2 µM
same,GI50,[11],2.92 µM
same,TGI,[11],13.2 µM
same,GI50,[12],12.5 µM
same,TGI,[12],25.2 µM
same,GI50,[13],3.49 µM
same,TGI,[13],15.1 µM
same,GI50,[14],3.77 µM
same,TGI,[14],> 100 µM
same,GI50,[15],3.01 µM
same,TGI,[15],14.1 µM
same,GI50,[16],10.4 µM
same,TGI,[16],22.1 µM
same,GI50,[17],10.9 µM
same,TGI,[17],22.8 µM
same,GI50,[18],4.45 µM
same,TGI,[18],18.5 µM
same,GI50,[19],5.45 µM
same,TGI,[19],21.7 µM
same,GI50,[20],6.46 µM
same,TGI,[20],23.8 µM
same,GI50,[21],10 µM
same,TGI,[21],21.7 µM
same,GI50,[22],3.7 µM
same,TGI,[22],15.1 µM
same,GI50,[23],4.67 µM
same,TGI,[23],24.3 µM
same,GI50,[24],9.88 µM
same,TGI,[24],22.2 µM
same,GI50,[25],4.37 µM
same,TGI,[25],16.6 µM
same,GI50,[26],10.9 µM
same,TGI,[26],23.8 µM
same,GI50,[27],4.73 µM
same,TGI,[27],17.8 µM
same,GI50,[28],5.01 µM
same,TGI,[28],20 µM
same,GI50,[29],2.56 µM
same,TGI,[29],11.3 µM
same,GI50,[30],3.47 µM
same,TGI,[30],12.9 µM
same,GI50,[31],7.84 µM
same,TGI,[31],20.2 µM
same,GI50,[32],4.56 µM
same,TGI,[32],19.2 µM
same,GI50,[33],5.35 µM
same,TGI,[33],21.8 µM
same,GI50,[34],7.53 µM
same,TGI,[34],20.1 µM
same,GI50,[35],4.03 µM
same,TGI,[35],16.2 µM
same,GI50,[36],4.45 µM
same,TGI,[36],17.2 µM
same,GI50,[37],2.87 µM
same,TGI,[37],9.23 µM
same,GI50,[38],11.4 µM
same,TGI,[38],23.7 µM
same,GI50,[39],13.6 µM
same,TGI,[39],28.7 µM
same,GI50,[40],5.04 µM
same,TGI,[40],19.9 µM
same,GI50,[41],4.07 µM
same,TGI,[41],17.4 µM
same,GI50,[42],6.35 µM
same,TGI,[42],23.1 µM
same,GI50,[44],5.55 µM
same,TGI,[44],18.3 µM
same,GI50,[45],3.43 µM
same,TGI,[45],14.2 µM
same,GI50,[46],4.43 µM
same,TGI,[46],17.6 µM
same,GI50,[47],2.81 µM
same,TGI,[47],11.3 µM
same,GI50,[48],3.42 µM
same,TGI,[48],15.2 µM
same,GI50,[49],5.64 µM
same,TGI,[49],22 µM
same,GI50,[50],3.76 µM
same,TGI,[50],13.7 µM
same,GI50,[51],3 µM
same,TGI,[51],12.7 µM
same,GI50,[52],3.08 µM
same,TGI,[52],12 µM
same,GI50,[53],11.1 µM
same,TGI,[53],24.9 µM
same,GI50,[54],7.16 µM
same,TGI,[54],19.7 µM
same,GI50,[55],4.12 µM
same,TGI,[55],17.3 µM
same,GI50,[56],4.77 µM
same,TGI,[56],17.2 µM
same,GI50,[57],4.88 µM
same,TGI,[57],18.5 µM
same,GI50,[58],5.13 µM
same,TGI,[58],20.4 µM
same,GI50,[59],3.23 µM
same,TGI,[59],13.9 µM
